The results in this text go back to patent US10829473B2, “Modulators of the cystic fibrosis transmembrane conductance regulator protein and methods of use” (AbbVie Overseas S.Á.R.L., priority 2017, dated 2020).

This assay has as its target T1, F508delCFTR (Homo sapiens, UniProt P13569, DEL508-508).
T1 construct: expressed in transfected cells; host or cells: CFBE41o- human lung derived epithelial cells (CFBE41o-F508delCFTR-HRP), doxycycline-inducible
In words: Cell Surface Expression-Horse Radish Peroxidase (CSE-HRP) Assay.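 As to EC50 (with co-corrector): co-corrector chromenyl benzoic acid corrector at 2 or 3 µM.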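 As to Maximum % activity (without co-corrector): % of on-plate positive control chromenyl benzoic acid corrector at 2 or 3 µM.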 The assay is classed as cell-based. As to conditions: for Maximum % activity (with co-corrector) / Emax: maximum at any tested concentration; for Emax: read-out: Maximum % activity (without co-corrector). The method in brief:
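Corrector compounds were given as 8-point 3-fold series from 20 or 30 μM, with or without a 2 μM co-corrector, for 18-24 h at 33 °C. Surface HRP was read by luminol luminescence as % of positive control; variable-Hill-slope sigmoidal fitting gave EC50 from triplicate plates.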

The mark [1] stands for this setting: test compound alone, without co-corrector, read-out: EC50 (without co-corrector).
The mark [2] stands for this setting: with co-corrector, read-out: EC50 (with co-corrector).

Where two headings read alike, the source gives them in different places.

T1 sequence (P13569 with tags, fused parts or gaps DEL508-508): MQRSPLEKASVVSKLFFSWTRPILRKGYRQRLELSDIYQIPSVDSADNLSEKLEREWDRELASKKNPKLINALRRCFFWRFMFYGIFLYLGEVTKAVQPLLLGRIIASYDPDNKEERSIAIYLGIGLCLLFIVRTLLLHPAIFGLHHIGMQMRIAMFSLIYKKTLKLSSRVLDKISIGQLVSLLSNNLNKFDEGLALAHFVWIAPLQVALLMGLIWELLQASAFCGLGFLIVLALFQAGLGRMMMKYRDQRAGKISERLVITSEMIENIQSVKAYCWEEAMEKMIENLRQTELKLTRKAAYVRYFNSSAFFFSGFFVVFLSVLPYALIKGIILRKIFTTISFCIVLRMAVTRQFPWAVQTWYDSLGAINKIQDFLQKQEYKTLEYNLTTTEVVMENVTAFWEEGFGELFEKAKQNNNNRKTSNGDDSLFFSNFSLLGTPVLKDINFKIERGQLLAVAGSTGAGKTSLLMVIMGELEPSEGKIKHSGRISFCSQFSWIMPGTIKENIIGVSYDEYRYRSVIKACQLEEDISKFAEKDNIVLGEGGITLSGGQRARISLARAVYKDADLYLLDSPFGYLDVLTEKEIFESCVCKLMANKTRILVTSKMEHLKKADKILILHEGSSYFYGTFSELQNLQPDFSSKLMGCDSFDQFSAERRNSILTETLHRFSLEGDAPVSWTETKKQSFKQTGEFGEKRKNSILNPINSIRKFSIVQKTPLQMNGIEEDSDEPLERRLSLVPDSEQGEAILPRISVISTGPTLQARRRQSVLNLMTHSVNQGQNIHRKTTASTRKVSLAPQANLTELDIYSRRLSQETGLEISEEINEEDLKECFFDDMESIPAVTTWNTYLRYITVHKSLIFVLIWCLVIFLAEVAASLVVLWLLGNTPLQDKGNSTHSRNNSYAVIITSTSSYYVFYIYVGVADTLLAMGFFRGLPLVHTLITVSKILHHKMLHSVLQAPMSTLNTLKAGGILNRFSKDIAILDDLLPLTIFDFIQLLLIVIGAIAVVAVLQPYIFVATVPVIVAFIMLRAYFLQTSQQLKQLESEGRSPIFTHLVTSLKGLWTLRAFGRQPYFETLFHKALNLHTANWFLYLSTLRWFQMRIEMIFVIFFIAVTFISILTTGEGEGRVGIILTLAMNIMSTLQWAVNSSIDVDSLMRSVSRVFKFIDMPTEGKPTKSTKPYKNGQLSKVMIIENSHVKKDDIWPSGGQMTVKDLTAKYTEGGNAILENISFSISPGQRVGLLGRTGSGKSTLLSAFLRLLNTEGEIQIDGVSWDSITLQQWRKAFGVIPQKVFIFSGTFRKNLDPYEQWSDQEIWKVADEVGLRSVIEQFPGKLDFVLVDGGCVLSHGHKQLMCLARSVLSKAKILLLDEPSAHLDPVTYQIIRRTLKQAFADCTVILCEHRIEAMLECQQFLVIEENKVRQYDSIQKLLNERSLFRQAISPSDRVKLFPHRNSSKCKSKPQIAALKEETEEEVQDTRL

What is called EC50 is the concentration giving half of the maximal effect. Turning to `COc1ccc(C2(C)COC2)cc1C1(C(=O)NS(=O)(=O)c2cccc3ncccc23)CC1` [II-89], the concentration for a half-maximal effect (EC50) under setting [1] was 3 to 10 µM and the EC50 under setting [2] lay in the range of 3 to 10 µM. In addition, the “Maximum % activity (with co-corrector)” value (with co-corrector) was “+++ (≥350)”. Besides, under “without co-corrector”, the Emax was above 150%.
In the case of `Cc1ccc(OC2COC2)c(C2(C(=O)NS(=O)(=O)c3cccc4nc(N)ccc34)CC2)c1` [II-90], the EC50 by setting is: under setting [1], 3 to 10 µM; under setting [2], 3 to 10 µM. Moreover, where the note is “with co-corrector”, the “Maximum % activity (with co-corrector)” value is recorded as “+++ (≥350)”. Also, the Emax (without co-corrector) was above 150%.
As for `COc1cc(C2(C(=O)NS(=O)(=O)c3cccc4[nH]ncc34)CC2)c(OCC(C)C)cn1` [II-91], the EC50 runs as follows: under setting [1], 3 to 10 µM; under setting [2], below 3 µM. Where the note is “with co-corrector”, the “Maximum % activity (with co-corrector)” value is on record as “+++ (≥350)”. Under “without co-corrector”, the Emax is above 150%.
Taken in the same sequence, the figures for `COC[C@H](C)Oc1ccc(C)cc1C1(C(=O)NS(=O)(=O)c2cccc3ncccc23)CC1` [II-92] were below 3 µM, below 3 µM, “+++ (≥350)” and above 150%.
As for `COc1ccc2c(S(=O)(=O)NC(=O)C3(c4cc(C5CC5)cnc4OCC(C)C)CC3)cccc2n1` [II-93], the EC50 runs as follows: under setting [1], below 3 µM; under setting [2], below 3 µM. Further, the “Maximum % activity (with co-corrector)” value (with co-corrector) is “+++ (≥350)”. For the same molecule, the Emax (without co-corrector) was above 150%.
`COc1ccc2c(S(=O)(=O)NC(=O)C3(c4cc(C5CCC5)cnc4OCC(C)C)CC3)cccc2n1` [II-94]: the EC50 is below 3 µM under setting [1] and below 3 µM under setting [2]. Also, the “Maximum % activity (with co-corrector)” value (with co-corrector) is “+++ (≥350)”. For the same molecule, the Emax (without co-corrector) is above 150%.
For `COc1ccc2c(S(=O)(=O)NC(=O)C3(c4cc(C5CC5)cnc4OC(C)C)CC3)cccc2n1` [II-95], the EC50 was below 3 µM under setting [1] and below 3 µM under setting [2]. Also, for the setting “with co-corrector”, the “Maximum % activity (with co-corrector)” value was “+++ (≥350)”. Besides, the Emax (without co-corrector) was above 150%.
For `CCOC(C)(C)c1ccc(OC)c(C2(C(=O)NS(=O)(=O)c3cccc4ncccc34)CC2)c1` [II-96], the EC50 reads like this: under setting [1], below 3 µM; under setting [2], below 3 µM. Also, the “Maximum % activity (with co-corrector)” value (with co-corrector) is recorded as “+++ (≥350)”. Moreover, for the setting “without co-corrector”, the Emax is above 150%.
Take `CCOc1ccc(C(C)(C)OC)cc1C1(C(=O)NS(=O)(=O)c2cccc3ncccc23)CC1` [II-97]: the EC50 reads like this: under setting [1], below 3 µM; under setting [2], below 3 µM. For the setting “with co-corrector”, the “Maximum % activity (with co-corrector)” value is recorded as “+++ (≥350)”. For the same molecule, the Emax (without co-corrector) is above 150%.
Regarding `CCc1ccc(OC(F)F)c(C2(C(=O)NS(=O)(=O)c3cccc4ncccc34)CC2)c1` [II-98], the half-maximal effective concentration (EC50) under setting [1] is below 3 µM and the EC50 under setting [2] was below 3 µM. For the same molecule, the “Maximum % activity (with co-corrector)” value (with co-corrector) is “+++ (≥350)”. Moreover, the Emax (without co-corrector) is above 150%.
With `COc1ccc(C(C)(C)OC)cc1C1(C(=O)NS(=O)(=O)c2cccc3nc(C)ccc23)CC1` [II-99], the EC50 is below 3 µM under setting [1] and below 3 µM under setting [2]. For the same molecule, the “Maximum % activity (with co-corrector)” value (with co-corrector) was “+++ (≥350)”. For the same molecule, under “without co-corrector”, the Emax is above 150%.
For `COc1ccc(C2(OC)CCC2)cc1C1(C(=O)NS(=O)(=O)c2cccc3nc(C)ccc23)CC1` [II-100], the half-maximal effective concentration (EC50) by setting is: under setting [1], 3 to 10 µM; under setting [2], below 3 µM. The “Maximum % activity (with co-corrector)” value (with co-corrector) is “+++ (≥350)”. For the same molecule, for the setting “without co-corrector”, the Emax was above 150%.
For the molecule `Cc1ccc(OC(F)F)c(C2(C(=O)NS(=O)(=O)c3cccc4nc(C)ccc34)CC2)c1` [II-101], the EC50 by setting is: under setting [1], below 3 µM; under setting [2], below 3 µM. The “Maximum % activity (with co-corrector)” value (with co-corrector) is reported as “+++ (≥350)”. Moreover, where the note is “without co-corrector”, the Emax is above 150%.
For the molecule `Cc1ccc2c(S(=O)(=O)NC(=O)C3(c4cc(Cl)ccc4OC(F)F)CC3)cccc2n1` [II-102], the EC50 reads like this: under setting [1], 3 to 10 µM; under setting [2], below 3 µM. Also, the “Maximum % activity (with co-corrector)” value (with co-corrector) is listed as “+++ (≥350)”. The Emax (without co-corrector) is above 150%.
On to `COC[C@H](C)Oc1ccc(C)cc1C1(C(=O)NS(=O)(=O)c2cccc3nc(C)ccc23)CC1` [II-104], for which the EC50 runs as follows: under setting [1], below 3 µM; under setting [2], below 3 µM. For the same molecule, the “Maximum % activity (with co-corrector)” value (with co-corrector) is “+++ (≥350)”. Besides, the Emax (without co-corrector) is above 150%.
Consider `CCOc1ccc(C(C)(C)COC)cc1C1(C(=O)NS(=O)(=O)c2cccc3nc(C)ccc23)CC1` [II-105], for which the EC50 under setting [1] is below 3 µM and the EC50 under setting [2] was below 3 µM. Further, the “Maximum % activity (with co-corrector)” value (with co-corrector) is “+++ (≥350)”. The Emax (without co-corrector) is above 150%.
Regarding `CCOC(C)(C)c1ccc(OC(F)F)c(C2(C(=O)NS(=O)(=O)c3cccc4ncccc34)CC2)c1` [II-106], the EC50 is, setting by setting: under setting [1], 3 to 10 µM; under setting [2], 3 to 10 µM. In addition, the “Maximum % activity (with co-corrector)” value (with co-corrector) is listed as “+++ (≥350)”. The Emax (without co-corrector) is above 150%.
`CCOC(C)(C)c1ccc(OC(F)F)c(C2(C(=O)NS(=O)(=O)c3cccc4nc(C)ccc34)CC2)c1` [II-107]: the EC50 under setting [1] is below 3 µM and the concentration for a half-maximal effect (EC50) under setting [2] was below 3 µM. The “Maximum % activity (with co-corrector)” value (with co-corrector) is “+++ (≥350)”. Also, the Emax (without co-corrector) was above 150%.
As to `COC(C)(C)c1ccc(OC(F)F)c(C2(C(=O)NS(=O)(=O)c3cccc4ncccc34)CC2)c1` [II-108], the 50% effective concentration (EC50) under setting [1] lay in the range of 3 to 10 µM and the 50% effective concentration (EC50) under setting [2] lay within 3 to 10 µM. Moreover, the “Maximum % activity (with co-corrector)” value (with co-corrector) is “+++ (≥350)”. Moreover, the Emax (without co-corrector) was above 150%.
As to `CCOCC(C)(C)c1ccc(OC)c(C2(C(=O)NS(=O)(=O)c3cccc4ncccc34)CC2)c1` [II-110], the EC50 reads like this: under setting [1], below 3 µM; under setting [2], below 3 µM. Moreover, under “with co-corrector”, the “Maximum % activity (with co-corrector)” value was “+++ (≥350)”. The Emax (without co-corrector) was above 150%.
Regarding `CCOCC(C)(C)c1ccc(OC)c(C2(C(=O)NS(=O)(=O)c3cccc4nc(C)ccc34)CC2)c1` [II-111], the EC50 was below 3 µM under setting [1] and below 3 µM under setting [2]. Besides, for the setting “with co-corrector”, the “Maximum % activity (with co-corrector)” value is on record as “+++ (≥350)”. The Emax (without co-corrector) is above 150%.
Regarding `CC(C)COc1ncc(N(C)C)cc1C1(C(=O)NS(=O)(=O)c2cccc3ncccc23)CC1` [II-112], the EC50 under setting [1] is below 3 µM and the EC50 under setting [2] is below 3 µM. For the same molecule, the “Maximum % activity (with co-corrector)” value (with co-corrector) was “+++ (≥350)”. In addition, the Emax (without co-corrector) was above 150%.
Turning to `COCC(C)(C)c1ccc(OC)c(C2(C(=O)NS(=O)(=O)c3cccc4nc(C)ccc34)CC2)c1` [II-113], the EC50 under setting [1] was below 3 µM and the half-maximal effective concentration (EC50) under setting [2] was below 3 µM. Besides, the “Maximum % activity (with co-corrector)” value (with co-corrector) is reported as “+++ (≥350)”. For the same molecule, the Emax (without co-corrector) is above 150%.
For `CCc1ccc(O[C@H]2CCOC2)c(C2(C(=O)NS(=O)(=O)c3cccc4nc(C)ccc34)CC2)c1` [II-115], the 50% effective concentration (EC50) runs as follows: under setting [1], below 3 µM; under setting [2], below 3 µM. Besides, under “with co-corrector”, the “Maximum % activity (with co-corrector)” value is listed as “+++ (≥350)”. Moreover, the Emax (without co-corrector) was above 150%.
Regarding `Cc1ccc(O[C@H]2CCOC2)c(C2(C(=O)NS(=O)(=O)c3cccc4ncccc34)CC2)c1` [II-117], the EC50 under setting [1] was in the range of 3 to 10 µM and the EC50 under setting [2] is below 3 µM. In addition, where the note is “with co-corrector”, the “Maximum % activity (with co-corrector)” value was “+++ (≥350)”. For the same molecule, the Emax (without co-corrector) was above 150%.
